The values below come from paper PMC9229949 (Pharmaceutics, 2022).

Test [1] deals with β-hematin formation from Fe(III)PPIX (hematin). Kind of test: β-hematin inhibition activity, oxidizing conditions (O-BHIA, hematin). It counts as biochemical. As to conditions: 18 h incubation; median ± S.E.M. of three experiments; free bases; read-out: β-Hematin Inhibitory Activity (BHIA) O-BHIA (Hematin), IC50. The procedure:
(§1) A hemin chloride (10 μL of 4 mM stock in 80% DMSO) aliquot was dispensed in a U bottom 96-well microplate, and then, 10 μL of 0.1 M NaOH (O-BHIA) or 4 mM reduced glutathione in PBS at pH 7.0 (R-BHIA) was added, and plates were sealed and incubated at 37 °C for 2 h. After this, 10 μL of the drug dissolved in DMSO was added and incubated for 2 h, followed by the addition of 180 μL of sodium acetate buffer (1.0 M, pH 5.2) and 10 μL of nonionic detergent IGEPAL-CA-630 solution in methanol (10 mg/mL). Plates were sealed and incubated at 37 °C for 18 h. […] The reaction was stopped by the addition of 50 μL of a sodium dodecyl sulfate solution (5.0% v/v in 0.1 M bicarbonate buffer at pH 9.0). Plates were centrifuged at 3700 rpm for 5 min, and 100 μL of supernatant was placed in a separate plate. […] Two independent experiments were performed, and each drug concentration was tested in quadruplicate concentrations.

In the next test the target is T1, PfTrxR (Plasmodium falciparum, UniProt Q25861).
T1 construct: made in house
T1 sequence (Q25861 1-541): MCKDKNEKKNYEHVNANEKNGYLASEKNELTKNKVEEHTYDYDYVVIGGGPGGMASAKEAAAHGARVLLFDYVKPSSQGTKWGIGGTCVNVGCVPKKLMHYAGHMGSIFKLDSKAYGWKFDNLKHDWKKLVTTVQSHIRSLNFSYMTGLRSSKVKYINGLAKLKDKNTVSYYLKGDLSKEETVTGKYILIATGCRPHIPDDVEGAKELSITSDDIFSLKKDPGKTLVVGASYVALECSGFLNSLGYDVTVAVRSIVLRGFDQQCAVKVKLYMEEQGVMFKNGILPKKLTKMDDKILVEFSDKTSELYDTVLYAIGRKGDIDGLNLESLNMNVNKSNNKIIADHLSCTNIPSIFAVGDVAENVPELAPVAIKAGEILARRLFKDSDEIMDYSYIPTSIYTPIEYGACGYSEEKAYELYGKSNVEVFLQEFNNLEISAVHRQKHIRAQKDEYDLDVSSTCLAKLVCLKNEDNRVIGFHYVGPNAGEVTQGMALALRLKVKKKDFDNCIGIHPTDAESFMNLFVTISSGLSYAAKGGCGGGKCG
Kind of test: Inhibition of enzymatic activity of recombinant P. falciparum TrxR. Type of test: biochemical. The procedure: The codon-optimized sequence for PfTrxR [27, 28] was synthesized and subcloned into pET-15b (Genscript) and expressed and purified as for human glutathione reductase (hGR). Recombinant Schistosoma mansoni (S. mansoni) thioredoxin glutathione reductase (SmTGR), human TrxR (hTrxR), and hGR proteins were expressed and purified as described. TrxR and TGR enzyme inhibition assays were performed in triplicate at 25 °C in 0.1 M potassium phosphate (pH 7.4), 10 mM EDTA, 100 µM NADPH and 0.01% Tween-20. SmTGR (4 nM), hTrxR (4 nM), and PfTrxR (50 nM) were preincubated with the compounds for 15 min. The reaction was started with addition of an equal volume of 5,5′-dithiobis(2-nitrobenzoic acid) (6 mM) and NADPH (100 µM). The increase in A412 during the first 3 min was recorded. […]. The reactions were performed in triplicate. The IC50s were calculated in Prism version 5.01.

The test system of test [2] is P. falciparum 3D7 (CQ-susceptible) asexual blood stages. Nature of the test: In vitro activity against asexual blood stages of P. falciparum, CQ-susceptible strain 3D7 (HRP2 ELISA). It counts as cell-based. To be noted: Plasmodium falciparum, 3D7. As for the experimental part:
The plates were incubated for 72 h at 37 °C in controlled atmosphere. After frozen and thawing the plates, hemolyzed cultures were homogenized by vortexing the plates. The antiparasitic activity was determined using the HRP2 ELISA-based assay Malaria Ag Celisa kit (ref KM2159, Cellabs PTY LDT, Brookvale, Australia). […] IC50s are expressed as means of three to five experiments.
Background: ELISA stands for enzyme-linked immunosorbent assay.

Test [3] has as its system β-hematin formation from Fe(II)PPIX (heme). Nature of the test: β-hematin inhibition activity, reducing conditions (R-BHIA, heme). It counts as biochemical. To be noted: 18 h incubation; median ± S.E.M. of three experiments; free bases; read-out: β-Hematin Inhibitory Activity (BHIA) R-BHIA (Heme), IC50. As for the experimental part:
as §1

In test [4] the test system is 3D7 P. falciparum gametocytes stages I/III. Kind of test: P. falciparum young gametocytes (stages I/III), luciferase viability. It counts as cell-based. To be noted: Plasmodium falciparum; 3D7 strain, 72 h; mean ± S.D. of one experiment; read-out: IC50, gametocytes of P. falciparum, Stages I/III. The procedure: The activity of compounds was assessed against young gametocytes (stages I/III) and against mature gametocytes (stage V). […] A volume of 100 μL of 3D7elo1-pfs16-CBG99 gametocytes of 3D7 P. falciparum at 0.5–1% parasitemia and 2% hematocrit were dispensed. […] Luciferase activity was used to determine gametocytes viability. A volume of 100 µL of culture medium was removed from each well to increase hematocrit; 70 µL of resuspended culture was transferred to a black 96-well plate; 70 µL of D-luciferin (1 mM in citrate buffer 0.1 M, pH 5.5) was added. Luminescence measurements were performed after 10 min with 500 ms integration time. The IC50 was extrapolated from nonlinear regression analysis of the concentration–response curve.

Test [5] is described as follows: Interaction with reduced glutathione (GSH) by monochlorobimane fluorescence assay. The procedure: Ten microliters per well of a solution of 2.0 mM reduced glutathione (Sigma-Aldrich, St. Louis, MO, USA, dissolved in PBS pH 7.2) was distributed in a 96-well microplate containing 170 μL/well of DMSO/PBS (1:1; v/v). Stock solutions of compounds were diluted in DMSO, and 10 μL was added in quadruplicate in the respective wells to a final concentration of 0.015 to 0.5 mM. […] After 1 h incubation at room temperature, fluorescence was recorded (λex = 360 nm, λem = 440 nm). Blank subtraction was performed prior to monochlorobimane addition, and controls included untreated wells (no drug) and no GSH. The results were expressed as a percentage of inhibition of GSH binding to monochlorobimane in comparison to control without compound. At least two independent experiments were performed.

Like-named read-outs stand apart in the source and are kept apart here. Where only a bound is given, the exact number is not on record here.

With `CCN(CC)Cc1cc(Nc2ccnc3cc(Cl)ccc23)ccc1O` [Amodiaquine (AQ), amodiaquine], the IC50 in test [1] was 140000 ± 30000 nM; on PfTrxR it was more than 66700 nM; in test [2] (72 h incubation, HRP2 ELISA, mean ± S.E.M. of at least three experiments, AQ hydrochloride hydrate, PQ diphosphate, CQ diphosphate, read-out: P. falciparum, IC50 ± S.E.M., CQ-Susceptible 3D7), 18 ± 1.6 nM; in test [2] (in vitro antiplasmodial activity, read-out: P. falciparum 3D7 (Cell Based Activity), IC50), 18 ± 2 nM; in test [3], 100000 ± 10000 nM; in test [4], 61 ± 20 nM.
With `[Cl][Au].c1ccc(P(c2ccccc2)c2ccccc2)cc1` [[AuClPPh3]], at PfTrxR (recombinant enzyme, 15 min preincubation, mean of one experiment, read-out: IC50 for TrxRs, P. falciparum (Cys)), the IC50 was 1.9 nM. For the same compound, in test [5] (2 h incubation, 10 to 0.3 drug:GSH molar ratio), the “interaction with GSH” value is given as “able to interact with GSH in a drug-concentration manner”. For the same compound, the “binding to GSH at 24 h versus 2 h incubation” value in test [5] (24 h versus 2 h incubation) is listed as “remained almost unaltered”.
